Laboratory results taken from the supplement of paper PMC5908809.

Assays:
[1] = test system: normal primary NK cells, pool 2 (3 donors) (IL-2 2.5 ng/mL); assay: percent inhibition of viability; higher = more inhibition; conditions: 72 h
[2] = test system: normal primary NK cells, pool 3 (3 donors) (IL-2 2.5 ng/mL); assay: as above; conditions: 72 h
IMC-1 (IL-2 20 ng/mL) [3] = assay: as above; conditions: 72 h
[4] = test system: normal NK cells expanded with K562-aAPC; assay: as above; conditions: 72 h, IL-2 2.5 ng/mL
Protocol: (§1)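 Drug sensitivity and resistance testing on K562-aAPC-expanded normal NK cells: 5 concentrations (10-fold steps over a 10,000-fold range), 72 h at 37 °C, viability by CellTiter-Glo normalised to DMSO and benzethonium chloride controls; DSS from the fitted curve.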

[5] = test system: normal NK cells expanded with K562-aAPC; assay: drug sensitivity score (DSS) (DSS units); higher = more sensitive; extreme values may be limits of the assay; conditions: 72 h; IL-2 2.5 ng/mL
Protocol: as §1

[6] = test system: normal primary NK cells, pool 2 (3 donors) (IL-2 2.5 ng/mL); assay: as above; conditions: 72 h
[7] = test system: normal primary NK cells, pool 3 (3 donors) (IL-2 2.5 ng/mL); assay: as above; conditions: 72 h
IMC-1 (IL-2 20 ng/mL) [8] = assay: as above; conditions: 72 h

CC(=O)N(O)CCCCCNC(=O)CCC(=O)N(O)CCCCCNC(=O)CCC(=O)N(O)CCCCCN [Deferoxamine] (max concentration tested 10000 nM)
percent inhibition of viability [%]
Conditions	1 nM	10 nM	100 nM	1000 nM	10000 nM
IMC-1 (IL-2 20 ng/mL) [3]	-6.25	-3.2	-4.14	-0.7	97.2
[1]	-2.8	5.46	3.49	11.1	42.7
[2]	-1.79	6.03	10.4	16.1	53.2
[4]	-3.82	-8.67	-5.64	22.8	86.1

Conditions	drug sensitivity score
IMC-1 (IL-2 20 ng/mL) [8]	5.37
[5]	8.23
[6]	3.84
[7]	4.59

CCN(CC)CCCC(C)Nc1c2ccc(Cl)cc2nc2ccc(OC)cc12 (centres undefined) [Mepacrine] (max concentration tested 50000 nM)
percent inhibition of viability [%]
Conditions	5 nM	50 nM	500 nM	5000 nM	50000 nM
IMC-1 (IL-2 20 ng/mL) [3]	-0.62	-1.1	2.08	100	101
[1]	-13.9	-3.31	9.39	98	101
[2]	-11.7	0.46	1.96	98.8	101
[4]	-2.84	-3.46	-4.79	100	101

Conditions	drug sensitivity score
IMC-1 (IL-2 20 ng/mL) [8]	18.2
[5]	17.6
[6]	19.4
[7]	18.1

O=C(O)C(=O)O.[NH-][C@@H]1CCCC[C@H]1[NH-].[Pt+2] [Oxaliplatin] (max concentration tested 100000 nM)
percent inhibition of viability [%]
Conditions	10 nM	100 nM	1000 nM	10000 nM	100000 nM
IMC-1 (IL-2 20 ng/mL) [3]	-0.91	5.5	6.16	51.1	101
[1]	-2.45	-3.26	15.2	44.2	93.1
[2]	-8.94	-0.68	20.4	44	97.6
[4]	0.69	4.04	21.3	86.9	101

Conditions	drug sensitivity score
IMC-1 (IL-2 20 ng/mL) [8]	11.6
[5]	18.5
[6]	10.7
[7]	11.3

CN(C)C(=O)c1cc2cnc(Nc3ccc(N4CCNCC4)cn3)nc2n1C1CCCC1 [Ribociclib] (max concentration tested 10000 nM)
percent inhibition of viability [%]
Conditions	1 nM	10 nM	100 nM	1000 nM	10000 nM
IMC-1 (IL-2 20 ng/mL) [3]	-7.57	-0.52	-5.29	0.27	7.32
[1]	-4.92	-2.8	8.5	5.64	48.2
[2]	-3.67	-4.43	6	1.54	30.9
[4]	-3.33	-2.59	0.08	20.6	22.7

Conditions	drug sensitivity score
IMC-1 (IL-2 20 ng/mL) [8]	0
[5]	3.05
[6]	3.47
[7]	1.58

Oc1ncc(N(CCCl)CCCl)c(O)n1 [Uramustine] (max concentration tested 10000 nM)
percent inhibition of viability [%]
Conditions	1 nM	10 nM	100 nM	1000 nM	10000 nM
IMC-1 (IL-2 20 ng/mL) [3]	-9.69	0.32	0.64	0.1	6.18
[1]	-0.88	5.22	7.92	6.65	14.2
[2]	-4.89	6.36	6.72	4.62	8.5
[4]	-9.68	-7.07	-4	3.8	14.6

Conditions	drug sensitivity score
IMC-1 (IL-2 20 ng/mL) [8]	0
[5]	0.53
[6]	0.26
[7]	0

CC1(C)CCC(CN2CCN(c3ccc(C(=O)NS(=O)(=O)c4ccc(NCC5CCOCC5)c([N+](=O)[O-])c4)c(Oc4cnc5[nH]ccc5c4)c3)CC2)=C(c2ccc(Cl)cc2)C1 [Venetoclax] (max concentration tested 1000 nM)
percent inhibition of viability [%]
Conditions	0.1 nM	1 nM	10 nM	100 nM	1000 nM
IMC-1 (IL-2 20 ng/mL) [3]	-3.1	2.12	-1.24	-0.5	5.01
[1]	-15.6	-3.12	0.73	7.62	31.3
[2]	-10.2	-7.52	-5.3	1.76	14.7
[4]	3.87	-7.3	-4.26	-4.09	18.9

Conditions	drug sensitivity score
IMC-1 (IL-2 20 ng/mL) [8]	0
[5]	0.35
[6]	2.56
[7]	0.37
